The compounds below were run against CDK2 (UniProt P24941) (assay: Enzyme Assay).

Row | Structure (SMILES) | IC50 [µM]
1 | C[N+]1([O-])CCC(NC(=O)c2n[nH]cc2NC(=O)c2c(F)cccc2F)CC1 (stereo unspecified) | < 20
2 | Cc1ccc(C(=O)Nc2c[nH]nc2C(=O)NC2CCN(C)CC2)cc1 | < 20
3 | O=C(Nc1c[nH]nc1C(=O)NC1CCNCC1)c1cc(F)cc(F)c1 | < 20
4 | COc1cscc1C(=O)Nc1c[nH]nc1C(=O)N[C@H]1CC[C@H](O)CC1 | < 20
5 | O=C(Nc1c[nH]nc1C(=O)NC1CCNCC1)c1ccccc1OCc1ccccc1 | < 20
6 | O=C(NC1CCN(c2ncccn2)CC1)c1n[nH]cc1NC(=O)c1c(F)cccc1F | < 20
7 | CN1CCC(NC(=O)c2n[nH]cc2NC(=O)c2ccccc2Cl)CC1 | < 20
8 | O=C(NC1CCC(CO)CC1)c1n[nH]cc1NC(=O)c1c(F)cccc1F (stereo unspecified) | < 20
9 | CN1CCN(c2cc(F)cc(C(=O)Nc3c[nH]nc3C(=O)NC3CCCCC3)c2)CC1 | < 20
10 | CC(C)(C)C1CCC(NC(=O)c2n[nH]cc2NC(=O)c2ccc(OC(F)F)cc2)CC1 (stereo unspecified) | < 750

Molecular target: CDK2 (UniProt P24941)
Assay: Enzyme Assay
Remark: another data set of the same source

Row | Structure (SMILES) | IC50 [µM]
11 | O=C(Nc1ccccn1)c1n[nH]cc1NC(=O)c1c(F)cccc1F | < 20
12 | O=C(Nc1ccc(F)cc1)c1n[nH]cc1NC1CCCCC1 | < 20
13 | CC1(C)CC(NC(=O)c2n[nH]cc2NC(=O)c2c(F)cccc2F)CC(C)(C)N1 | < 750
14 | CC(=O)Nc1c(C(=O)Nc2ccc(F)cc2)n[nH]c1C | < 20
15 | O=C(Nc1c[nH]nc1C(=O)Nc1ccc(F)cc1)c1ccc2ccccc2n1 | < 20
16 | CC1(C(=O)Nc2c[nH]nc2C(=O)Nc2ccc(F)cc2)CC1 | < 20
17 | CC(=O)N1CCC(C(=O)Nc2c[nH]nc2C(=O)Nc2ccc(F)cc2)CC1 | < 20
18 | O=C(NC1CCC(C(=O)O)CC1)c1n[nH]cc1NC(=O)c1c(F)cccc1F (stereo unspecified) | < 20
19 | O=C(Nc1c[nH]nc1C(=O)Nc1ccc(F)cc1)c1ccccn1 | < 20
20 | O=C(Nc1c[nH]nc1C(=O)Nc1ccc(F)cc1)c1ccc(O)nc1 | < 20
21 | CC1CCCC(C)N1CCNC(=O)c1n[nH]cc1NC(=O)c1c(F)cccc1F (stereo unspecified) | < 20
22 | Cn1cc(N)nc1C(=O)Nc1c[nH]nc1C(=O)Nc1ccc(F)cc1 | < 20
23 | O=C(Nc1ccccc1)c1n[nH]cc1-c1ccccc1 | < 20
24 | O=C(CS(=O)(=O)c1ccccc1)Nc1c[nH]nc1C(=O)Nc1ccc(F)cc1 | < 20
25 | O=C(NCC1CCOCC1)c1n[nH]cc1NC(=O)c1c(F)cccc1F | < 20
26 | O=C(CCN1CCOCC1)Nc1c[nH]nc1C(=O)Nc1ccc(F)cc1 | < 20
27 | Cc1[nH]nc(C(=O)Nc2ccc(F)cc2)c1NC(=O)c1c(F)cccc1F | < 20
28 | COc1ccccc1C(=O)Nc1c[nH]nc1C(=O)Nc1ccc(F)cc1 | < 20
29 | Nc1nnnn1CC(=O)Nc1c[nH]nc1C(=O)Nc1ccc(F)cc1 | < 20
30 | COc1ccc(CNC(=O)c2n[nH]cc2NC(=O)c2c(F)cccc2F)cc1 | < 20
31 | Cc1cccc(C(=O)Nc2c[nH]nc2C(=O)Nc2ccc(F)cc2)c1 | < 20
32 | CN(c1c[nH]nc1C(=O)Nc1ccc(F)cc1)C1CCCCC1 | < 20
33 | CC(C)(C)C(=O)Nc1c[nH]nc1C(=O)Nc1ccc(F)cc1 | < 20
34 | O=C(Nc1c[nH]nc1C(=O)Nc1ccc(F)cc1)c1ccoc1 | < 20
35 | O=C(NCc1c(Cl)cccc1Cl)c1n[nH]cc1NC(=O)c1c(F)cccc1F | < 750
36 | CN1CCN(c2ccc(CNC(=O)c3n[nH]cc3-c3ccccc3)cc2)CC1 | < 750

Row | Structure (SMILES) | IC50 [µM]
37 | O=C(Nc1ccc(F)cc1)c1n[nH]cc1NC(=O)C(F)(F)F | < 20
38 | O=C(Nc1c[nH]nc1C(=O)Nc1ccc(F)cc1)c1cccc([N+](=O)[O-])c1 | < 20
39 | O=C(NC1CCN(Cc2ccccc2)CC1)c1n[nH]cc1NC(=O)c1c(F)cccc1F | < 20
40 | CC(C)(C)OC(=O)N1CCCC(CNC(=O)c2n[nH]cc2NC(=O)c2c(F)cccc2F)C1 (stereo unspecified) | < 20
41 | COc1cccc(C(=O)Nc2c[nH]nc2C(=O)Nc2ccc(F)cc2)c1F | < 20
42 | O=C(Nc1ccc(F)cc1)c1n[nH]cc1Nc1ccccn1 | < 20
43 | O=C(Nc1c[nH]nc1C(=O)Nc1ccc(F)cc1)c1ccccc1O | < 20
44 | O=C(NCc1ccccn1)c1n[nH]cc1NC(=O)c1c(F)cccc1F | < 20
45 | O=C(Nc1c[nH]nc1C(=O)Nc1ccc(F)cc1)c1ccco1 | < 20
46 | NC(=O)c1n[nH]cc1-c1ccccc1 | < 750
47 | Cn1cc(CC(=O)Nc2c[nH]nc2C(=O)Nc2ccc(F)cc2)c2ccccc21 | < 20
48 | Cc1ccoc1C(=O)Nc1c[nH]nc1C(=O)Nc1ccc(F)cc1 | < 20
49 | CN1CCC(Oc2ccc(F)cc2NC(=O)c2n[nH]cc2NC(=O)c2c(F)cccc2F)CC1 | < 20
50 | O=C(Nc1c[nH]nc1C(=O)Nc1ccc(F)cc1)c1ccc(F)cc1 | < 20
51 | O=C(CCc1nnc[nH]1)Nc1c[nH]nc1C(=O)Nc1ccc(F)cc1 | < 20
52 | Cc1onc(-c2ccccc2)c1C(=O)Nc1c[nH]nc1C(=O)Nc1ccc(F)cc1 | < 20
53 | COC(=O)c1cccc(NC(=O)c2n[nH]cc2NC(=O)c2c(F)cccc2F)c1N | < 20
54 | O=C(Nc1c[nH]nc1C(=O)Nc1ccc(F)cc1)c1ccccc1OCCN1CCCC1 | < 20
55 | NC(=O)c1n[nH]cc1NC(=O)c1c(F)cccc1F | < 20
56 | Cc1sccc1C(=O)Nc1c[nH]nc1C(=O)Nc1ccc(F)cc1 | < 20
57 | O=C(Nc1cc(F)ccc1OCCN1CCCC1)c1n[nH]cc1NC(=O)c1c(F)cccc1F | < 20
58 | O=C(Nc1cccc(CN2CCOCC2)c1)c1n[nH]cc1NC(=O)c1c(F)cccc1F | < 20
59 | O=C(Nc1ccc(F)cc1)c1n[nH]cc1NC(=O)c1c(O)cccc1F | < 20
60 | CN1CCN(c2ccc(CNC(=O)c3n[nH]cc3-c3cccc(O)c3)cc2)CC1 | < 20
61 | CN1CCN(c2ccc(CNC(=O)c3n[nH]cc3-c3ccc(Cl)cc3Cl)cc2)CC1 | < 750
62 | O=C(Nc1c[nH]nc1C(=O)Nc1ccc(F)cc1)c1ccccc1[N+](=O)[O-] | < 20

Row | Structure (SMILES) | IC50 [µM]
63 | CN1CCN(CCC(=O)Nc2c[nH]nc2C(=O)Nc2ccc(F)cc2)CC1 | < 20
64 | O=C(Nc1c[nH]nc1C(=O)Nc1ccc(F)cc1)c1ccccc1F | < 20
65 | O=C(NCCN1CCOCC1)c1n[nH]cc1NC(=O)c1c(F)cccc1F | < 20
66 | CNS(=O)(=O)Cc1ccc(CNC(=O)c2n[nH]cc2-c2ccc(Cl)cc2Cl)cc1 | < 20
67 | O=C(Nc1c[nH]nc1C(=O)Nc1ccc(F)cc1)c1ccc([N+](=O)[O-])cc1 | < 20
68 | O=C(Cc1c[nH]c2ccccc12)Nc1c[nH]nc1C(=O)Nc1ccc(F)cc1 | < 20
69 | O=C(Nc1c[nH]nc1C(=O)Nc1ccc(F)cc1)c1cccc(F)c1 | < 20
70 | Cc1ccc(C(=O)Nc2c[nH]nc2C(=O)Nc2ccc(F)cc2)cc1 | < 20
71 | O=C(NC1CCN(Cc2ccccc2)C1)c1n[nH]cc1NC(=O)c1c(F)cccc1F (stereo unspecified) | < 20
72 | O=C(NCc1ccccc1)c1n[nH]cc1NC(=O)c1c(F)cccc1F | < 20
73 | CCC(CC)Nc1c[nH]nc1C(=O)Nc1ccc(F)cc1 | < 20
74 | O=C(Nc1cccc(CO)c1)c1n[nH]cc1NC(=O)c1c(F)cccc1F | < 20
75 | O=C(Cc1c[nH]cn1)Nc1c[nH]nc1C(=O)Nc1ccc(F)cc1 | < 20
76 | O=C(NCc1ccccc1Cl)c1n[nH]cc1NC(=O)c1c(F)cccc1F | < 20
77 | O=C(NCc1ccccc1F)c1n[nH]cc1NC(=O)c1c(F)cccc1F | < 20
78 | O=C(Nc1ccc(F)cc1)c1n[nH]cc1Nc1nccnc1Cl | < 20
79 | Cc1ccc(C)n1-c1c[nH]nc1C(=O)Nc1ccc(F)cc1 | < 750
80 | O=C(Nc1c[nH]nc1C(=O)Nc1ccc(F)cc1)c1ccc(CO)cc1 | < 20
81 | COc1cccc(C(=O)Nc2c[nH]nc2C(=O)Nc2ccc(F)cc2)c1 | < 20
82 | O=C(Nc1c[nH]nc1C(=O)Nc1ccc(F)cc1)c1ccsc1 | < 20
83 | COc1cccc(OC)c1C(=O)Nc1c[nH]nc1C(=O)Nc1ccc(F)cc1 | < 20
84 | O=C(CCN1CCCCC1)Nc1c[nH]nc1C(=O)Nc1ccc(F)cc1 | < 20
85 | O=C(Nc1c[nH]nc1C(=O)Nc1ccc(F)cc1)c1ccc2cc[nH]c2c1 | < 20
86 | COc1ccc(F)c(C(=O)Nc2c[nH]nc2C(=O)Nc2ccc(F)cc2)c1 | < 20
87 | O=C(NC1CCOCC1)c1n[nH]cc1NC(=O)c1c(F)cccc1F | < 20
88 | O=C(Nc1ccc(F)cc1)c1n[nH]cc1NC(=O)C1(O)CC1 | < 20

Row | Structure (SMILES) | IC50 [µM]
89 | O=C(Nc1ccc(F)cc1)c1n[nH]cc1NC(=O)c1c[nH]c2ccccc12 | < 20
90 | O=C(NCc1c(F)cccc1F)c1n[nH]cc1NC(=O)c1c(F)cccc1F | < 20
91 | O=C1CCC(C(=O)Nc2c[nH]nc2C(=O)Nc2ccc(F)cc2)N1 (stereo unspecified) | < 20
92 | CC(C)Nc1c[nH]nc1C(=O)Nc1ccc(F)cc1 | < 20
93 | O=C(CO)Nc1c[nH]nc1C(=O)Nc1ccc(F)cc1 | < 20
94 | O=C(Nc1ccccc1)c1n[nH]cc1-c1cccc(CO)c1 | < 20
95 | O=C(Nc1c[nH]nc1C(=O)Nc1ccc(F)cc1)c1cc[nH]c1 | < 20
96 | O=C(NCC1CCCNC1)c1n[nH]cc1NC(=O)c1c(F)cccc1F (stereo unspecified) | < 20
97 | CN1CCN(c2ccc(CNC(=O)c3n[nH]cc3NC(=O)c3c(F)cccc3F)cc2)CC1 | < 20
98 | CC(CO)Nc1c[nH]nc1C(=O)Nc1ccc(F)cc1 (stereo unspecified) | < 20
99 | COc1ccc(NC(=O)c2n[nH]cc2-c2ccccc2)cn1 | < 20
100 | O=C(NC1CCCC1)c1n[nH]cc1NC(=O)c1c(F)cccc1F | < 20
101 | O=C(NCC1CCCCC1)c1n[nH]cc1NC(=O)c1c(F)cccc1F | < 20
102 | O=C(CCc1ccc(Cl)cc1)Nc1c[nH]nc1C(=O)Nc1ccc(F)cc1 | < 20
103 | O=C(Nc1ccc(F)cc1)c1n[nH]cc1Nc1cnccn1 | < 20
104 | Cc1nc[nH]c1-c1c[nH]nc1C(=O)Nc1ccc(F)cc1 | < 20
105 | Cc1ccccc1C(=O)Nc1c[nH]nc1C(=O)Nc1ccc(F)cc1 | < 20
106 | CN1CCN(c2c[nH]nc2C(=O)Nc2ccc(F)cc2)CC1 | < 20
107 | CC(C)(C)C1CCC(NC(=O)c2n[nH]cc2NC(=O)c2c(F)cccc2F)CC1 (stereo unspecified) | < 20
108 | CN1CCC(NC(=O)c2n[nH]cc2NC(=O)c2c(F)cccc2F)CC1 | < 20
109 | O=C(Nc1c[nH]nc1C(=O)Nc1ccc(F)cc1)c1cnc[nH]1 | < 20
110 | O=C(CCO)Nc1c[nH]nc1C(=O)Nc1ccc(F)cc1 | < 20
111 | O=C(Nc1ccc(F)cc1)c1n[nH]cc1N1CCOCC1 | < 20

— the Kinase Knowledgebase extract (Sharma et al. 2016)
